From PMC8402619 (Viruses, 2021)

Columns and labels:
OAT1 = biological target: T1, OAT1 (Homo sapiens, UniProt Q4U2R8); assay: Inhibition of transporter-mediated probe uptake in MDCKII-OAT1 cells; assay type: in vitro ADME
T1 construct: expressed in transfected cells; host or cells: MDCKII
T1 sequence (Q4U2R8 1-563): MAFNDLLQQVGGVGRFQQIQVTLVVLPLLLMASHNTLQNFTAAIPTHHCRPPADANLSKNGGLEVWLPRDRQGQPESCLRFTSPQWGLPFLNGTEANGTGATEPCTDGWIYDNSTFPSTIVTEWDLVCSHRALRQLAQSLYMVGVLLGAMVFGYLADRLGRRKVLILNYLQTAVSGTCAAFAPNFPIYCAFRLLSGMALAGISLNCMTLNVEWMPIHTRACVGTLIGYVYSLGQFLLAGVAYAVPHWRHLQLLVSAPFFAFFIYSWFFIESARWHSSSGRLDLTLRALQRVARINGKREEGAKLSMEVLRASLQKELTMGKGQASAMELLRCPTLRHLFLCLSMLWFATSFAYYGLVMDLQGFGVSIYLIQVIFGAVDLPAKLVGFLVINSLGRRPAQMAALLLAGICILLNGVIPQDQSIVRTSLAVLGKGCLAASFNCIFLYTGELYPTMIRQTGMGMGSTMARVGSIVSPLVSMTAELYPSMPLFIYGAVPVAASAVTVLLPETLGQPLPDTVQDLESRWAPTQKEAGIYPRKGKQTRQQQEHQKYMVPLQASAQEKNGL

HIV-1 = details: cited from earlier work
CYP1A2 = biological target: T2, CYP1A2 (Homo sapiens, UniProt P05177); assay: Time-dependent CYP inhibition in pooled human liver microsomes; assay type: in vitro ADME
T2 sequence (P05177 1-516): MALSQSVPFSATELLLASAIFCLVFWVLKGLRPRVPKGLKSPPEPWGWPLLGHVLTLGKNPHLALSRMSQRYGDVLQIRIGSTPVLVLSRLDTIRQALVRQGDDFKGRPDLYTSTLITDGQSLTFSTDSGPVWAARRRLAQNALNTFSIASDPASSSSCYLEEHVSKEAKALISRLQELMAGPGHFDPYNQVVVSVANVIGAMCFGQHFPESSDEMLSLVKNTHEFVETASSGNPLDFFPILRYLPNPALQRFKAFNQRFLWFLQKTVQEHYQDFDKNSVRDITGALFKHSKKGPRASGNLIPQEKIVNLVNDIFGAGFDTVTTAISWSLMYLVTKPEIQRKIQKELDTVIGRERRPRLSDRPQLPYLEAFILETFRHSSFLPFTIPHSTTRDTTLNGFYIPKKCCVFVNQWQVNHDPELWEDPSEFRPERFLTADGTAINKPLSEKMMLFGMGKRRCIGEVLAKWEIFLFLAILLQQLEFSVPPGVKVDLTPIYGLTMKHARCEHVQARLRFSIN

CYP2C9 = CYP2C9 (Homo sapiens, UniProt P11712); assay: Reversible CYP inhibition in pooled human liver microsomes; assay type: in vitro ADME
CYP3A4 = CYP3A4 (Homo sapiens, UniProt P08684); assay: Time-dependent CYP inhibition in pooled human liver microsomes; assay type: in vitro ADME
[1] = Plasma protein binding by equilibrium dialysis, human plasma; assay type: in vitro ADME
OCT1 = biological target: T3, OCT1 (Homo sapiens, UniProt O15245); assay: Inhibition of transporter-mediated probe uptake in CHO-K1-OCT1 cells; assay type: in vitro ADME
T3 construct: expressed in transfected cells; host or cells: CHO-K1
T3 sequence (O15245 1-554): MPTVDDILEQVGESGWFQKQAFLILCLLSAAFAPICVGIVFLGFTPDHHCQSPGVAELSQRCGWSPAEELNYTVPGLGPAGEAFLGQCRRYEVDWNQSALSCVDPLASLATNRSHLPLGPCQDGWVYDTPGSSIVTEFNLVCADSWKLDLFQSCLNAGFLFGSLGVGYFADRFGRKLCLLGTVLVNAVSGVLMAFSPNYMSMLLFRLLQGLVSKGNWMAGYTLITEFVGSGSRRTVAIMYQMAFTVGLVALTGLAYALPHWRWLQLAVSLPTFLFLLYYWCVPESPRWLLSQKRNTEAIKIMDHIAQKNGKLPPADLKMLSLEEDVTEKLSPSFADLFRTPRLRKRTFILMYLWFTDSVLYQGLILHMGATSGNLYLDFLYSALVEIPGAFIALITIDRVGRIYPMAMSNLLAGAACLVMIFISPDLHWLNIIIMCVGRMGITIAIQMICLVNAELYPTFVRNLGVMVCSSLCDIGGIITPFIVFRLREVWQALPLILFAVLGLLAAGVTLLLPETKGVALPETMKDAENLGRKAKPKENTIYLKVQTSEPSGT

UGT1A1 = biological target: T4, UGT1A1 (Homo sapiens, UniProt P22309); assay type: in vitro ADME
T4 sequence (P22309 26-533): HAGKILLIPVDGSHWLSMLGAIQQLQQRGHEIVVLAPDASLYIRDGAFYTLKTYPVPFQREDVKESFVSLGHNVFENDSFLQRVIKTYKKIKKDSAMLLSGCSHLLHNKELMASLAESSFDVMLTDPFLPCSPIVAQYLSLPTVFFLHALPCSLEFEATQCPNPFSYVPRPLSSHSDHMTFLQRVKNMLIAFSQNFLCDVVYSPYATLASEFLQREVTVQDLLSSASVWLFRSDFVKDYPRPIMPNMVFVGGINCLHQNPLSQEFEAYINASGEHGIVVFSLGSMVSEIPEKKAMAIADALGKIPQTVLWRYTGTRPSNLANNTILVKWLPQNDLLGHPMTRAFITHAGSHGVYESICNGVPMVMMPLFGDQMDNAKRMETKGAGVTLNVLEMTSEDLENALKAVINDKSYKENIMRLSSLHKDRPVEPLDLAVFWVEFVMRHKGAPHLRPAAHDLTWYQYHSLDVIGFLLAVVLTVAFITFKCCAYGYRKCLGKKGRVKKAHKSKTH

CYP2C9, sequence (P11712 whole entry): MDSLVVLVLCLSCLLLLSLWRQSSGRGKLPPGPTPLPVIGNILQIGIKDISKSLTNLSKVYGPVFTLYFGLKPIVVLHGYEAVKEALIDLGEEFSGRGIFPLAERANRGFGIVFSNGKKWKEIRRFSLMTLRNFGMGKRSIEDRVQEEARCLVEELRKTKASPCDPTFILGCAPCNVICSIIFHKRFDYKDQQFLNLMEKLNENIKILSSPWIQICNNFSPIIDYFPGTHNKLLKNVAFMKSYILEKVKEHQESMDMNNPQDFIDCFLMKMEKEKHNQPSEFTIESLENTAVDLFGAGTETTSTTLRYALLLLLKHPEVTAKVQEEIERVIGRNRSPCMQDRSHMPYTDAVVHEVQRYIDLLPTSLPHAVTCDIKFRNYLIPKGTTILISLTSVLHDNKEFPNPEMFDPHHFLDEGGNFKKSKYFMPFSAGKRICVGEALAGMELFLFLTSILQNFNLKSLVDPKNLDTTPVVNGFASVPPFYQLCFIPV
CYP3A4, sequence (P08684 whole entry): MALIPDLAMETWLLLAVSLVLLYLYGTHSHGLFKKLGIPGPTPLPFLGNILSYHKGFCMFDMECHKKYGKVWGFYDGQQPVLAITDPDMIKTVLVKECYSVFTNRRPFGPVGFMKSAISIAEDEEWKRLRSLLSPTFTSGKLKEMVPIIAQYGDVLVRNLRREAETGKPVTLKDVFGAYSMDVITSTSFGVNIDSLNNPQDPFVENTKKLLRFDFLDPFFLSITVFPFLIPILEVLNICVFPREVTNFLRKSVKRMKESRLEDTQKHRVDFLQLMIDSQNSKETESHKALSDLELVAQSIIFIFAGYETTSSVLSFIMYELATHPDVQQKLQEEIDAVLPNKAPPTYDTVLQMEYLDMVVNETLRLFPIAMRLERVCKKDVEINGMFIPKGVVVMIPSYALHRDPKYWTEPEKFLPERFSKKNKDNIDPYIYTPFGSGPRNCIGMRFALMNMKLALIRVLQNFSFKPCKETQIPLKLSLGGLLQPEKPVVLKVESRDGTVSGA

C#C[C@]1(CO)O[C@@H](n2cnc3c(N)nc(F)nc32)C[C@@H]1O [Islatravir, 4′-Ethynyl-2-fluoro-2′-deoxyadenosine]
IC50 (OAT1; OAT1-mediated cidofovir uptake, read-out: Islatravir IC50): > 100 µM | Maximum Unbound Plasma Concentration (Imax,u) to IC50 Ratio (OAT1; OAT1, 60 mg, Cmax 1.01 µM, fu,p 0.96): <0.010 µM | DDI Potential (OAT1; OAT1 inhibition, FDA, EMA, PMDA guidance): Low risk | tolerability (HIV-1; participants with and without HIV across a range of doses): generally well tolerated | duration of viral load reduction maintained (HIV-1; single administration at a dose as low as 0.5 mg): 7 days | duration of viral load suppression (HIV-1; treatment-naïve PLWH, oral doses between 0.5 and 30 mg): at least 7 days | time-dependent inhibition (CYP1A2; CYP1A2, pre-incubation of 10 and 50 µM for up to 30 min): no time-dependent inhibition | DDI Potential (CYP1A2; CYP1A2 time dependent inhibition): Low risk ^h | IC50 (CYP1A2; time dependent, CYP1A2, read-out: Islatravir IC50): > 50 µM | DDI Potential (CYP2C9; CYP2C9 reversible inhibition, FDA, EMA, PMDA guidance): Low risk | Maximum Unbound Plasma Concentration (Imax,u) to Ki,u Ratio (CYP2C9; CYP2C9 reversible, 60 mg, Cmax 1.01 µM, fu,p 0.96, Ki,u = IC50/2): <0.019 µM | IC50 (CYP2C9; reversible, CYP2C9 diclofenac 4′-hydroxylation, read-out: Islatravir IC50): > 100 µM | time-dependent inhibition (CYP3A4; CYP3A4, pre-incubation of 10 and 50 µM for up to 30 min): no time-dependent inhibition | DDI Potential (CYP3A4; CYP3A4 time dependent inhibition): Low risk ^h | IC50 (CYP3A4; time dependent, CYP3A4, read-out: Islatravir IC50): > 50 µM | concentration dependence of binding to plasma proteins ([1]; 0.1 to 10 µM, all species tested): did not exhibit concentration dependence | fraction unbound at 24 h, 0.1 µM ([1]; pH 7.4, human plasma, 0.1 µM islatravir, ± standard deviation): 0.96 ± 0.04 | IC50 (OCT1; OCT1-mediated uptake of metformin, read-out: Islatravir IC50): > 300 µM | Maximum Unbound Inlet Concentration (Iin,max,u) to IC50 Ratio (OCT1; OCT1, 60 mg dose): <0.035 | DDI Potential (OCT1; OCT1 inhibition, FDA, EMA, PMDA guidance): Low risk | DDI Potential (UGT1A1; UGT1A1 reversible inhibition, FDA, EMA, PMDA guidance): Low risk ^g | Intestinal Concentration (Igut) to Ki,u Ratio (UGT1A1; UGT1A1 reversible, Igut = 60 mg/250 mL = 818 µM): <16.4 µM | IC50 (UGT1A1; reversible, UGT1A1 estradiol 3-glucuronidation, read-out: Islatravir IC50): > 100 µM
